The text below walks through data of patent US11180461B2, “Triazoles as Kv3 inhibitors” (AUTIFONY THERAPEUTICS LIMITED, priority 2012, dated 2021).

Experiment [1] has as its system Long Evans adult rats with noise-induced tinnitus. The experiment in a line: Model of tinnitus: gap pre-pulse inhibition of acoustic startle in noise-exposed Long Evans rats. It counts as in vivo, rat. As for the experimental part:
Twenty Long Evans adult rats were exposed to a unilateral 116 dB, 16 kHz octave-band noise for one hour in order to induce hearing loss and chronic tinnitus. Ten control rats received a sham noise exposure. Approximately thirty days after the noise exposure hearing thresholds were determined for each animal. Animals were then assessed for the presence of tinnitus using a gap pre-pulse inhibition of acoustic startle paradigm similar to that described by Turner J G, Brozoski T J, Bauer C A, Parrish J L, Myers K, Hughes L F, Caspary D M. Behav Neurosci. 2006 February; 120(1):188-95. In this test, rats were placed on a motion sensor that measured the startle amplitude of the animals in response to a sudden loud sound (115-dB SPL, 20-ms duration) emitted by a loudspeaker located in the ceiling of the cage. It is known that a brief, non-startling sound or “pre-pulse”, prior to the startle sound can reduce the startle amplitude, a phenomenon known as pre-pulse inhibition. In the present study, the pre-pulse is substituted by a 50 ms silence gap in a constant sound 100 ms prior to the startle sound. If the gap is perceived by the animal, then then startle response will be inhibited. However, if the animal has tinnitus, then the tinnitus sound may fill the gap and will startle as if there were no gap (reduced or absent gap pre-pulse inhibition). A drug that reduces the tinnitus will therefore restore gap pre-pulse inhibition.
The pitch of tinnitus is typically in the same range as the hearing loss, which in turn is most marked at the frequencies of the noise trauma. Thus each animal was tested for gap pre-pulse inhibition using gaps in tones of 10, 12.5, 16, 20, and 25 kHz at 60-65 dB SPL. As a control, the animals were also tested with gaps in a broadband sound of the same amplitude. Irrespective of whether the animals have tinnitus, it is unlikely that the tinnitus would fill the gap in the broadband sound, and thus this provides a control for whether the noise-trauma might have affected the gap detection ability of the rats. […]

Experiment [2] concerns aged and young Fischer 344 (F344) rats. The experiment can be described thus: Model of central auditory processing deficit: auditory gap detection (gap-induced PPI of startle) in F344 rats. Type of experiment: in vivo, rat. As for the experimental part:
The ability of COMPOUND X to improve auditory temporal processing in the rat, was examined using an auditory gap detection procedure in aged female Fischer 344 (F344) rats with an average age of 19.5±1.9 months, and in young F344 rats with an average age of 3 months. COMPOUND X, at doses of 30 or 60 mg/kg, or vehicle were administered via the intraperitoneal route on three test occasions using a crossover design, with an interval of at least 7 days between occasions.
Hearing thresholds in each rat were determined under anaesthesia using the auditory brainstem response (ABR) prior to the first drug administration. ABRs were recorded using subcutaneous needle electrodes in a sound attenuated chamber using pure tone bursts as stimuli (5 ms duration, frequency range 2-40 kHz).
The gap detection procedure evaluated the ability of the rats to detect short gaps in background noise by measuring the degree of inhibition that the gap afforded in the animal's startle response to a subsequent loud sound, a phenomenon known as pre-pulse inhibition (PPI). Testing was performed in a sound attenuated chamber. During the testing procedure, the rat was confined to a small wire mesh cage on a motion-sensitive platform. The animal's reflex movements were detected and transduced by a piezoelectric accelerometer. The startle response was evaluated in a 100 ms window beginning at the onset of the startle stimulus (a 110 dB SPL broad-band noise burst of 50 ms duration embedded in a background continuous broad-band noise of 65 dB SPL). Acoustic stimulation was presented via a loudspeaker placed 12 cm above the platform inside the chamber.
PPI of the startle response was induced by gaps of different durations (5-50 ms) preceding the startle stimulus by 70 ms. The degree of PPI was calculated from the startle response amplitude in the presence of the gap relative to the startle response amplitude in the absence of the gap. A two-way ANOVA with the Bonferroni post-hoc test was used to compare the degree of PPI before and after the drug applications.

Experiment [3] deals with chinchilla model of acute noise-induced hearing loss. The experiment in a line: Chinchilla model of acute noise-induced hearing loss (auditory brainstem response thresholds). It counts as in vivo. The note with it: 60 mg/kg i.p., doses 12 hours apart, 5 pre- and 5 post-noise; 21 days after noise exposure; p<0.01. As for the experimental part:
The otoprotective efficacy of COMPOUND X (i.e. the ability to prevent or reduce the development of permanent acute noise-induced hearing loss) was investigated using a chinchilla model of acute noise-induced hearing loss, as follows:
Subjects comprised male, 3 year old chinchillas (Laniger), 10 animals per group.
Vehicle (20% Captisol®, 0.5% w/v HPMC K15M and 0.5% w/v Tween-80™) was prepared using autoclaved deionized water not more than one week prior to use. A suspension of COMPOUND X in the vehicle at 10 mg/ml was prepared less than 24 hours prior to administration. COMPOUND X was administered at 60 mg/kg via the intraperitoneal route, with doses 12 hours apart. Five injections were given pre-noise exposure and five post-noise exposure. […]
Auditory brainstem responses (ABRs) were collected prior to noise exposure and 21 days after noise exposure. […] Thresholds were measured in response to tone-bursts with 1 ms rise/fall and a 0 ms plateau gated by a Blackman envelope and centred at the frequencies of 2, 4, 6 and 8 kHz, presented at 30/s. […]
The thresholds for ABRs at the four different sound frequencies at day 21 post-noise exposure were compared to the thresholds at baseline, prior to noise exposure in order to determine a threshold shift for each animal. The data were then analysed using a 2-way ANOVA, with treatment and frequency as main factors.

The next experiment concerns Kv3 channels. As to conditions: cited from earlier work.

Consider `CC[C@@]1(C)NC(=O)N(c2cnc(Oc3ccc(C)c(OC(F)(F)F)c3)nc2)C1=O` [COMPOUND X, (5R)-5-ethyl-5-methyl-3-[2-({4-methyl-3-[(trifluoromethyl)oxy]phenyl}oxy)-5-pyrimidinyl]-2,4-imidazolidinedione], for which the gap pre-pulse inhibition result in experiment [1] (animals with evidence of tinnitus, 30 mg/kg i.p. 1-2 hours prior to testing, p<0.05) is on record as “significantly restored”; in experiment [1] (animals with evidence of tinnitus, 60 mg/kg i.p. 1-2 hours prior to testing, p=0.01), “significantly restored”; in experiment [1] (control animals or noise-exposed animals without tinnitus), “no effect”. In addition, the “degree of PPI (gap detection)” value in experiment [2] (aged F344 rats, 30 mg/kg i.p., 30 ms gap duration, p<0.001) is listed as “significantly increased”; in experiment [2] (aged F344 rats, 30 mg/kg i.p., gap durations of 5, 10, and 15 ms) it was “significant improvement”; in experiment [2] (aged F344 rats, 60 mg/kg i.p., 30 ms gap duration, p<0.001), “significantly increased”; in experiment [2] (young F344 rats, 30 mg/kg i.p.), “tended to increase the degree of PPI, but the increases were not significant”; in experiment [2] (young F344 rats, 60 mg/kg i.p.), “tended to increase the degree of PPI, but the increases were not significant”. The “permanent threshold shift in ABR” value in experiment [3] is listed as “significantly reduced”.
On to `CC[N+](CC)(CC)CC` [Tetraethylammonium (TEA), Tetraethylammonium], for which the “inhibition of Kv3 channels” value in the experiment with Kv3 channels is recorded as “inhibit the channels at low millimolar concentrations”.
